Measured values: patent publication US11535856B2, “Stilbenoid prenyltransferases from plants” (Arkansas State University—Jonesboro, priority 2016, dated 2022)

What was measured:
[1] = test system: resveratrol prenyltransferase AhR4DT; test: Prenyltransferase assay with microsomal fraction of elicited peanut hairy roots; type: biochemical, Arachis hypogaea; conditions: for prenylation as prenyl acceptor: 100 μM acceptor, 300 μM DMAPP; for resveratrol prenyltransferase activity relative to Mg^2+: 10 mM divalent cation
[2] = target: AhR4DT-1 (Arachis hypogaea, UniProt A0A2H4GDC8); test: AhR4DT-1 activity in microsomal fraction of N. benthamiana leaves; conditions: for activity as prenyl donor: 300 μM donor, 100 μM resveratrol as prenyl acceptor; for prenylation as prenyl acceptor: DMAPP as prenyl donor; for AhR4DT-1 activity relative to Mg^2+: 10 mM divalent cation or EDTA
[3] = target: AhR3′DT-1 (Arachis hypogaea, UniProt A0A2H4GDD0); test: AhR3′DT-1 activity in microsomal fraction of N. benthamiana leaves; conditions: for activity as prenyl donor: 300 μM donor, 100 μM resveratrol as prenyl acceptor; for prenylation as prenyl acceptor: DMAPP as prenyl donor; for AhR3′DT-1 activity relative to Mg^2+: 10 mM divalent cation or EDTA
[4] = test system: peanut hairy root cultures; test: Inhibitor feeding experiment in elicited peanut hairy root cultures; type: cell-based, Arachis hypogaea
[5] = test system: resveratrol prenylation; test: Screening for stilbenoid prenylation activity, crude extract of infiltrated N. benthamiana leaves; type: biochemical, Arachis hypogaea; conditions: resveratrol and DMAPP as substrates
Description: The engineered A. tumefaciens was grown in 5 mL of YEP medium, containing 50 mg/L of kanamycin (Sigma-Aldrich) and 30 mg/L of streptomycin (Sigma-Aldrich) for antibiotic selection, at 28° C. on an orbital shaker at 200 rpm. After cultivation for 2 days, 5 mL of bacterial suspension was inoculated into 50 mL of fresh YEP medium containing the antibiotics and allowed to grow for one additional day under the same conditions. Bacteria were pelleted by centrifugation, resuspended in 500 mL of induction medium containing 10 mM MgCl2 with 1 mM acetosyringone and incubated for 4 h at 28° C. under 200 rpm orbital shaking until their OD600 reached to a range from 0.5 to 0.6. Before the infiltration, 0.005% of Tween-20, 0.005% of Triton 100 and 0.005% of Silwet L-77 were added to bacterial cultures to enhance the efficiency of transformation in N. benthamiana leaves. Agrobacterium-mediated vacuum infiltration was performed on 4-week-old N. benthamiana following the methodology described previously (Medrano et al., 2009).
After 48 hours of post-infiltration, the “middle tier” of N. benthamiana leaves were harvested for prenylation activity screening. Five grams of leaf tissue (fresh weight) were grounded and homogenized using a mortar with pestle in 10 mL of extraction buffer containing 100 mM Tris-HCl (pH 7.6) and 10 mM dithiothreitol (DTT). […] The total protein concentration was determined by coomassie protein assay (Thermo Scientific) using bovine serum albumin as standard.
The reaction of crude cell-free extract of N. benthamiana leaves infiltrated with A. tumefaciens harboring the empty pBIB-Kan vector was used as control.

[6] = 100 clomazone with elicitors, 72 h
[7] = 10 μM mevastatin, 72-h treatment

Sequence of AhR3′DT-1 (A0A2H4GDD0 entry or part of it): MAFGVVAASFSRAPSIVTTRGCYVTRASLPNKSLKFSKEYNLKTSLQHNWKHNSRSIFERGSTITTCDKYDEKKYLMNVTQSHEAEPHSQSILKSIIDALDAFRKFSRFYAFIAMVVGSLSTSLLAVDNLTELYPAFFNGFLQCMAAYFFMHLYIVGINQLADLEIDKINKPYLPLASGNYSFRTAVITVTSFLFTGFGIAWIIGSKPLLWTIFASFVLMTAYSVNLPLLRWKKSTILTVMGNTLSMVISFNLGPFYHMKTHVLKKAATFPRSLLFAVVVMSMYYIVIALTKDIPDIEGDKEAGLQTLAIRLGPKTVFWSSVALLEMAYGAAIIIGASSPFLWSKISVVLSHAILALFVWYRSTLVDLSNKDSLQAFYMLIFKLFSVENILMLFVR
Sequence of AhR4DT-1 (A0A2H4GDC8 entry or part of it): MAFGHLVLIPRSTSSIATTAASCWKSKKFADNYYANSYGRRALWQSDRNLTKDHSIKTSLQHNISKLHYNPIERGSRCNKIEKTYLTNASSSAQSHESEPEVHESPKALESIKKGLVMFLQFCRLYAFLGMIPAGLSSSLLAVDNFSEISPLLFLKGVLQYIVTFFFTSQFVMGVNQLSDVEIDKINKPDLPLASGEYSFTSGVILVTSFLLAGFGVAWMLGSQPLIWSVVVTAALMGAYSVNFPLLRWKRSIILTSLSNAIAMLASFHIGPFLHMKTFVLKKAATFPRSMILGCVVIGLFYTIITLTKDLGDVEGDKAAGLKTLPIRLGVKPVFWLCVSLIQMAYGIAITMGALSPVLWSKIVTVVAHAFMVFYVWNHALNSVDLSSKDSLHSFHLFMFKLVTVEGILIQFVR

CC(C)=CCOP(=O)(O)OP(=O)(O)O [DMAPP, dimethylallyl pyrophosphate]
Km ([1]; microsomal fraction of peanut hairy roots, 28° C., 60 min, read-out: apparent km): 91.9 ± 7.03 µM
Vmax for AhR4DT-1 relative to AhR3′DT-1 [2]: 5.8 fold

CC(C)=CCC/C(C)=C/COP(=O)(O)OP(=O)(O)O [GPP, geranyl pyrophosphate]
activity as prenyl donor [2]: Neither AhR4DT-1 nor AhR3′DT-1 showed any detectable activity
activity as prenyl donor [3]: Neither AhR4DT-1 nor AhR3′DT-1 showed any detectable activity

O=C1C[C@@H](c2ccc(O)cc2)Oc2cc(O)cc(O)c21 [naringenin]
prenylation as prenyl acceptor [2]: neither prenylated flavanone, prenylated flavone, nor prenylated isoflavone was detected
prenylation as prenyl acceptor [3]: neither prenylated flavanone, prenylated flavone, nor prenylated isoflavone was detected

Oc1cc(O)cc(/C=C/c2ccc(O)cc2O)c1 [oxyresveratrol]
prenylation as prenyl acceptor [1]: an isoprene unit was also transferred to oxyresveratrol
prenylation as prenyl acceptor [2]: can selectively catalyze
prenylation as prenyl acceptor [3]: prenylated products of piceatannol and prenylated oxyresveratrol were identified

Oc1cc(O)cc(/C=C/c2ccc(O)c(O)c2)c1 [piceatannol, 3,5,3′,4′-tetrahydroxy-trans-stilbene]
prenylation as prenyl acceptor [1]: catalyzed the synthesis of arachidin-5 as the predominant prenylated product
Vmax for AhR4DT-1 relative to AhR3′DT-1 [2]: 6.9 fold
prenylation as prenyl acceptor [2]: can selectively catalyze
prenylation as prenyl acceptor [3]: prenylated products of piceatannol and prenylated oxyresveratrol were identified

[Ca+2] [Ca^2+]
resveratrol prenyltransferase activity relative to Mg^2+ [1]: 0.9%

CC(C)=CCC/C(C)=C/CC/C(C)=C/CC/C(C)=C/COP(=O)(O)OP(=O)(O)O [GGPP, geranylgeranyl pyrophosphate]
activity as prenyl donor [2]: Neither AhR4DT-1 nor AhR3′DT-1 showed any detectable activity
activity as prenyl donor [3]: Neither AhR4DT-1 nor AhR3′DT-1 showed any detectable activity

O=C(O)CN(CCN(CC(=O)O)CC(=O)O)CC(=O)O [EDTA]
AhR4DT-1 activity relative to Mg^2+ [2]: no activity was detected
AhR3′DT-1 activity relative to Mg^2+ [3]: no activity was detected

O=c1c(-c2ccc(O)cc2)coc2cc(O)cc(O)c12 [genistein]
prenylation as prenyl acceptor [2]: neither prenylated flavanone, prenylated flavone, nor prenylated isoflavone was detected
prenylation as prenyl acceptor [3]: neither prenylated flavanone, prenylated flavone, nor prenylated isoflavone was detected

Oc1cc(O)cc(/C=C/c2ccccc2)c1 [pinosylvin]
prenylation as prenyl acceptor [1]: catalyzed pinosylvin into chiricanine A
prenylation as prenyl acceptor [2]: can selectively catalyze
prenylation as prenyl acceptor [3]: no prenylated pinosylvin was produced

CC1(C)CON(Cc2ccccc2Cl)C1=O [clomazone]
yields of prenylated stilbenoids compared to non-inhibitor group ([4]; 10 μM and 100 μM clomazone): significantly lower yields of prenylated stilbenoids
yields of resveratrol compared to non-inhibitor group ([4]; 10 μM and 100 μM clomazone): significantly higher yields of resveratrol
piceatannol produced ([4]; 100 μM clomazone): 9.02 µM
resveratrol produced ([4]; 100 μM clomazone): 845.7 µM
accumulation of arachidin-5 and arachidin-1 ([4]; 100 μM clomazone, 48-hour): almost completely inhibited
piceatannol concentration ([4]; 100 μM clomazone, 72 h): increased only slightly
yield of resveratrol [4, 6]: 830.73 ± 25.83 µM
yield of resveratrol relative to non-inhibitor group [4, 6]: 6.3 fold
effects on accumulation of resveratrol and inhibition of prenylated stilbenoids accumulation ([4]; clomazone 1 μM to 100 μM with elicitors): increased with the concentration of clomazone
micromolar increase of resveratrol relative to overall decrease of arachidin-5, -1, -2 and -3 ([4]; clomazone with elicitors): about 1.54 fold
levels of all prenylated stilbenoids ([4]; clomazone, 24-h interval between 48- and 72-h time points): no significant increases
production of stilbenoids without elicitors ([4]; different concentrations of clomazone, no elicitors): none of these stilbenoids was detected

O=c1cc(-c2ccc(O)cc2)oc2cc(O)cc(O)c12 [apigenin]
prenylation as prenyl acceptor [2]: neither prenylated flavanone, prenylated flavone, nor prenylated isoflavone was detected
prenylation as prenyl acceptor [3]: neither prenylated flavanone, prenylated flavone, nor prenylated isoflavone was detected

CC(C)=CCC/C(C)=C/CC/C(C)=C/COP(=O)(O)OP(=O)(O)O [FPP, farnesyl pyrophosphate]
activity as prenyl donor [2]: Neither AhR4DT-1 nor AhR3′DT-1 showed any detectable activity
activity as prenyl donor [3]: Neither AhR4DT-1 nor AhR3′DT-1 showed any detectable activity

CC[C@H](C)C(=O)O[C@H]1CCC=C2C=C[C@H](C)[C@H](CC[C@@H]3C[C@@H](O)CC(=O)O3)[C@H]21 [mevastatin]
yields of resveratrol, piceatannol and prenylated stilbenoids ([4]; 10 μM mevastatin with elicitors): no significant effect
increase in yield of arachidin-1 [4, 7]: 41%
increase in yield of arachidin-5 [4, 7]: 27%
accumulation of arachidin-5, arachidin-1, arachidin-2 and arachidin-3 ([4]; 24-h interval between 48 and 72-h treatments): did not inhibit the accumulation
levels of prenylated stilbenoids ([4]; mevastatin at 1, 10, or 100 μM with 100 μM MeJA and 9 g/L CD, preliminary experiments): did not affect the levels of prenylated stilbenoids

[Mn+2] [Mn^2+]
resveratrol prenyltransferase activity relative to Mg^2+ [1]: 71.8%
AhR4DT-1 activity relative to Mg^2+ [2]: 83.9%
efficiency relative to Mg^2+ [3]: 2.1 fold
AhR3′DT-1 activity relative to Mg^2+ [3]: 210.3%

[Mg+2] [Mg^2+]
resveratrol prenyltransferase activity relative to Mg^2+ [1]: 100%
AhR4DT-1 activity relative to Mg^2+ [2]: 100%
AhR3′DT-1 activity relative to Mg^2+ [3]: 100%

[Fe+2] [Fe^2+]
resveratrol prenyltransferase activity relative to Mg^2+ [1]: 14.6%
AhR4DT-1 activity relative to Mg^2+ [2]: 6.4%
AhR3′DT-1 activity relative to Mg^2+ [3]: 34.8%

B1: AhR3′DT-2: stilbenoid prenyltransferase, GenBank KY565246 (protein, listed as Arachis hypogaea)
chain: MPFGLSASFLKSRSFHHHGTRRALWNNNGKLSKEYCIKMQHNYWKNHCTNLKGGSMMSDDKFEKKYLVNATSKNSHDEPKKSQPILEFIKDGMDTFRQFSRLYAFFSFISSGLSSSLLAVDNLSNISPKMFLIGFLQFLIPNCIMFQYIVGVNQLADIEIDKINKPYLPLASGKYSLRNAIIIVASSLLMGFGSAWVLGSRPMFWCLVISTMLMTAYSVNLPLLRWKRSTILATLSLASSMTIGQHIAPFLHMKTVLKKALNYPRSLVFTVVVVSLFYTVISLAKDIPDIEGDKAAGHKTLAIHLGPRRVFWFCISLLQMTYGIAIIMGALSPILWSKIFTVVTHFIMSIILWYRANSVDLSNNDSLQSFYMAIFVFLSVENFLVLFVR
activity level relative to AhR3′DT-1 [5]: 18%

B2: AhR3′DT-3: stilbenoid prenyltransferase, GenBank KY565247 (protein, listed as Arachis hypogaea)
chain: MPFGLSASFLKSRSLHHHGWKFLKEREIHKQPLRNTRRALWNNNGKLSKEYCIKMQHNYWKNHCTNLKGGSMMSDDKFEKKYLVNATSKNSHDEPKKSQPILEFIKDGMDTFRQFSRLYAFFSFISSGLSSSLLAVDNLSNISPKMFLIGFLQFLIPNCIMFQYIVGVNQLADIEIDKINKPYLPLASGKYSLRNAIIIVASSLIMGFGSAWVLGSRPMFWCLVISTMLMTAYSVNLPLLRWKRSTILATLSLASSMTIGQHIAPFLHMKTVLKKALNYPRSLVFTVVVVSLFYTVISLAKDIPDIEGDKAAGHKTLAIHLGPRRVFWFCISLLQMTYGIAIIMGALSPILWSKIFTVVTHFIMSIILWYRANSVDLSNNDSLQSFYMAIFVFLSVENFLVLFVR
activity level relative to AhR3′DT-1 [5]: 17%

B3: AhR3′DT-4: stilbenoid prenyltransferase, GenBank KY565248 (protein, listed as Arachis hypogaea)
chain: MASTSRLLLHASLPPPTTSISKTNSGSHAVIRSIWHNNGKYPKEKTCIETPLLLQHNQKHHYTCDQIKRKHFVKATHAQSKNEPEPQADSAKPIWNSIKDVMHTIQKFSVFYALIGLLSGILSSSLLAVEKLSDLSPTFFISMLQFMAAYSSMQLYTTGVNQLADIEIDKINKPYRPLASSKISFGGGLAIVAASLFMSFGLALMIGSKPLLWGLILIFILMTAYSVNLPFLRWKKSTILTLLSGVPTILTAYNLAPYLHMKTFVLKKPFIFTRSLAFTTVVMTFFYVVISLFKDIPDIEGDKKEGLQTLSIRLGPKRVFWLCISLLEMTYGIAIIMGLTSPFLWSKIFTVMAHAINAWILWFRANSVDLKSKEDFQSFYMFIFKLLYLENVLVLFVR
activity level relative to AhR3′DT-1 [5]: 5%
